In patent US6300368A, “Anilide derivatives and antiarrhythmic agents containing the same” (priority 1998, dated 2001):
Like-named read-outs stand apart in the source and are kept apart here.

Key:
[1] = test system: Purkinje's fiber; test: Effects on ventricle: action potential of Purkinje's fiber from dog right ventricular free wall (Pharmacological Trial 2); assay type: cell-based; settings: Canis lupus familiaris
Description: Pharmacological Trial 2: Evaluation of Effects on Ventricle
Method: Purkinje's fiber specimen excised from the right ventricular free wall of dog, perfused with normal Tyrode solution and driven by electrical stimulation (fundamental frequency=1 Hz) was used. Standard glass microelectrode was used to record action potential.

[2] = test system: ventricular function; settings: cited from earlier work

In the case of `CC(=O)Nc1ccc(OCCNC(C)C)cc1.Cl` [Reference 1, 4'-[2-(Isopropylamino)ethoxy]acetanilide Hydrochloride], the inhibition at 30 µM ([1]; 30 μM, read-out: suppression of Vmax (maximum rate of rise for action potential)) is given as 15% and the “action on ventricular function” value [2] is given as “act suppressively on ventricular function”.

Work on `O=C(NCC1CCCCN1)c1cc(OCC(F)(F)F)ccc1OCC(F)(F)F` (centres unmarked) [Flecanide] yielded an inhibition at 3 µM ([1]; 3 μM, read-out: suppression of Vmax (maximum rate of rise for action potential)) of 30%.

In the case of `CN(CCOc1ccc(NS(C)(=O)=O)cc1)CCc1ccc(NS(C)(=O)=O)cc1` [Dofetilide], the activation at 10 µM ([1]; read-out: extension of APD50 (duration to repolarize 50%)) is reported as 57%, the activation at 10 µM ([1]; read-out: extension of APD75 (duration to repolarize 75%)) is reported as 45% and the activation at 10 µM ([1]; read-out: extension of APD90 (duration to repolarize 90%)) is reported as 42%.

`CC(C)N(CCC(C(N)=O)(c1ccccc1)c1ccccn1)C(C)C` (centres unmarked) [Disopyramido] showed an inhibition at 30 µM ([1]; read-out: suppression of Vmax (maximum rate of rise for action potential)) of 33%.

For `CC(=O)Nc1ccc(OCCNC2CCCCC2)cc1` [4'-[2-(cyclohexylamino)ethoxy] acetanilide], the “action on ventricular function” value [2] is given as “act suppressively on ventricular function”.
